Experimental data taken from patent publication EP4813403A1, “USE OF GLP-1R/GIPR DOUBLE-TARGET AGONIST IN PREPARING ANIMAL DRUG” (Hangzhou Zhongmeihuadong Pharmaceutical Co., Ltd., priority 2023, dated 2025).

Experiments:
in vivo = test: in vivo; parameters: species or system cats; conditions: sc, 0.025 mg/kg
Method: After subcutaneous administration to cats, plasma was collected and the drug concentration in plasma was determined to illustrate the in vivo pharmacokinetic properties of the compound according to the present invention. […] The blood samples were stored on wet ice and centrifuged (1500-1600 g, 2-8°C, for 10 minutes) within 0.5 hours to obtain plasma, with at least 100 µL of plasma required for each sample. The plasma was then frozen and stored at -90°C to -60°C for subsequent analysis and detection. 30.0 µL of thawed plasma sample were taken, and 300 µL of acetonitrile solution containing an internal standard was added to precipitate the proteins. The mixture was vortexed for 1 minute and then centrifuged at 13,000 rpm for 5 minutes. 165 µL of the supernatant were transferred to a 96-well plate for LC-MS/MS analysis to determine the drug concentration in the plasma. Based on the drug concentration in plasma of the compound in the cats, the pharmacokinetic parameters were calculated by applying the software Winnolin 8.3 in a non-compartmental model. Table 12 Average pharmacokinetic parameters after single subcutaneous administration in cats

[1] = Pharmacokinetics in beagle dogs; type: in vivo; conditions: for MRT: beagle
Method: After subcutaneous administration to beagle dogs, plasma was collected and the drug concentration in plasma was determined to illustrate the in vivo pharmacokinetic properties of the compound according to the present invention. The compound of the present invention was administered to a beagle dog (7-9 kg) at a dose of 0.05mg/kg subcutaneously (s.c.). About 500 µL of whole blood was collected from the saphenous vein into an EDTA-K2 anticoagulant tube at predose, 0.5 hours, 1 hour, 2 hours, 6 hours, 10 hours, 24 hours, 48 hours, 72 hours and 96 hours, respectively. The blood samples were centrifuged at 3000 g and at 2°C to 8°C for 10 minutes to obtain plasma, which was stored at -90°C to -60°C for further analysis and assay.
20.0 µL of thawed plasma sample was taken. […] Then 120 µL of 0.1% formic acid in methanol was added to precipitate the protein. The mixture was vortexed for 5 minutes, and centrifuged at 4815g for 10 minutes. 100.0 µL of the supernatant was taken, into which 100 µL of 0.5% aqueous formic acid solution was added. The mixture was vortexed for 5 minutes. 10 µL of the mixture solution was sampled and injected into the LC-MS/MS to determine the drug concentration in plasma.
Based on the drug concentration in plasma of the compound in the beagle dogs, the pharmacokinetic parameters were calculated by applying the software Winnolin 8.3 in a non-compartmental model. Table 11 Average pharmacokinetic parameters after single subcutaneous administration in beagle dogs

dog GLP-1R = target: T1, dog GLP-1R (Canis lupus familiaris, UniProt A0A8I3NUR9); test: Agonistic activity on GLP-1R of different species (LANCE Ultra cAMP assay): dog; type: cell-based; conditions: ratio of EC50 value of other species to human EC50 value
T1 construct: expressed in transfected cells
T1 sequence (A0A8I3NUR9 1-464): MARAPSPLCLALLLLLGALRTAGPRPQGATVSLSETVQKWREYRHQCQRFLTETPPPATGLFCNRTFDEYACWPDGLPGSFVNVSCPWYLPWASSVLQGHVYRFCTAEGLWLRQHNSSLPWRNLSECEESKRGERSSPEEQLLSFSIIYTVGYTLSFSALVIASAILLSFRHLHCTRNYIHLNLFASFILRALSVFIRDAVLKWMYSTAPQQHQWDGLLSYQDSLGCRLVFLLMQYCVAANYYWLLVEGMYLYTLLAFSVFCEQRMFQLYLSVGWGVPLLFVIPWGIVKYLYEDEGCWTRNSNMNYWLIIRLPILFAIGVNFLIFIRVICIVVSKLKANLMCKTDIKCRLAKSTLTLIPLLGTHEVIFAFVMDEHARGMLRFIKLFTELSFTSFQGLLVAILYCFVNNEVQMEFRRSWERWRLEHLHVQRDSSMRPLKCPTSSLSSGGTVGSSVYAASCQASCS
Method: The in vitro agonistic activity of the compound of the present invention on GLP-1R was measured in cells stably expressing human, dog, mouse, rat, rabbit, and monkey GLP-1R (human GLP-1R-HEK, dog GLP-1R-HEK, mouse GLP-1R-HEK, rat GLP-1R- in HEK, rabbit GLP-1R-CHO, monkey GLP-1R-HEK cells). Human GLP-1R-HEK, dog GLP-1R-HEK, mouse GLP-1R-HEK, rat GLP-1R-HEK, rabbit GLP-1R-CHO, and monkey GLP-1R-HEK cells were resuspended in 1×Casein Stimulation Buffer (HBSS, 5 mM HEPES, 0.5 mM IBMX, 0.1% casein, pH7.4), and seeded into a 384-well cell culture plate at 9 µL/well (cell numbers being 1000, 1000, 1000, 1500, 1000, 1000 cells/well, respectively). 1 µL of 1×Casein Stimulation Buffer containing 10× compound was added to the above-mentioned 384-well cell culture plate. The plate was incubated at 37 °C for 30 minutes. After the incubation was completed, 5 µL of Eu-cAMP working solution and 5 µL of Ulight^TM-cAMP working solution were added sequentially, centrifuged and then incubated at room temperature for 1 hour. The readings at 665 nm and 620 nm were determined with a 330 nm excitation light on a microplate reader. The 665 nm/620 nm reading ratio was calculated. […] GraphPad was used to perform nonlinear regression according to the response percentage and the concentration of the compound added to obtain the EC50 value for each compound.

[2] = beagle dogs, single subcutaneous administration, 0.05mg/kg
[3] = dog, in vivo, sc, beagle dogs, single subcutaneous administration, 0.05mg/kg

Q: Which AUC(0-inf) (in vivo; both sexes, cat) does the source give for CC[C@H](C)[C@H](NC(=O)C(C)(C)NC(=O)[C@H](Cc1ccc(O)cc1)NC(=O)[C@H](CC(=O)O)NC(=O)[C@H](CO)NC(=O)[C@@H](NC(=O)C(C)(Cc1ccccc1)NC(=O)[C@@H](NC(=O)CNC(=O)[C@H](CCC(=O)O)NC(=O)C(C)(C)NC(=O)[C@@H](N)Cc1ccc(O)cc1)[C@@H](C)O)[C@@H](C)O)C(=O)NC(C)(C)C(=O)N[C@@H](CC(C)C)C(=O)N[C@@H](CC(=O)O)C(=O)N[C@@H](CCCCN)C(=O)N[C@@H](CCC(N)=O)C(=O)N[C@@H](C)C(=O)N[C@@H](CCC(N)=O)C(=O)N[C@@H](C)C(=O)N[C@@H](CCC(=O)O)C(=O)N[C@@H](Cc1ccccc1)C(=O)N[C@H](C(=O)N[C@@H](CCCCNC(=O)COCCOCCNC(=O)COCCOCCNC(=O)COCCOCCNC(=O)CC[C@H](NC(=O)CCCCCCCCCCCCCCCCCCCCC(=O)O)C(=O)O)C(=O)N[C@@H](Cc1c[nH]c2ccccc12)C(=O)N[C@@H](CC(C)C)C(=O)N[C@@H](CC(C)C)C(=O)N[C@@H](CCCCN)C(=O)NCC(=O)NCC(=O)N1CCC[C@H]1C(=O)N[C@@H](CO)C(=O)N[C@@H](CO)C(=O)NCC(=O)N[C@@H](C)C(=O)N1CCC[C@H]1C(=O)N1CCC[C@H]1C(=O)N1CCC[C@H]1C(=O)N[C@@H](CO)C(=O)N[C@@H](CCCCN)C(N)=O)C(C)C (stereo partly drawn) [Compound P016] here?
A: 11200 ng·h/mL

Q: And the AUC(0-t) (in vivo; both sexes, cat)?
A: 9260 ng·h/mL

Q: And the Cmax (in vivo; both sexes, cat)?
A: 123 ng/mL

Q: And the Tmax (in vivo; both sexes, cat)?
A: 24 h

Q: And the half-life (in vivo; both sexes, cat)?
A: 37.4 h

Q: What about the MRT (in vivo; both sexes, cat, MRT0-t) of the same compound?
A: 54.4 h

Q: What about the MRT (in vivo; both sexes, cat, MRT0-∞) of the same compound?
A: 61.6 h

Q: And the AUC(0-t) (in vivo)?
A: 9260 ng·h/mL

Q: What about the T1/2 (in vivo) of the same compound?
A: 37.4 h

Q: What about the AUC(0-t) [1, 2] of the same compound?
A: 29925 ng·h/mL

Q: What about the Cmax [1, 2] of the same compound?
A: 407.33 ng/mL

Q: What about the Tmax [1, 2] of the same compound?
A: 19.33 h

Q: And the MRT ([1]; dog, in vivo, sc, 0.05 mg/kg, MRT0-inf)?
A: 108 ± 23.2 h

Q: What about the MRT ([1]; dog, in vivo, sc, 0.05 mg/kg, MRT0-t) of the same compound?
A: 44.8 ± 4.17 h

Q: And the T1/2 ([1]; dog, in vivo, sc, 0.05 mg/kg)?
A: 69.32 h

Q: And the AUC(0-inf) [1, 3]?
A: 52100 ± 14700 ng·h/mL

Q: And the half-life [1, 3]?
A: 69.3 ± 14 h

Q: And the AUC(0-t) ([1]; dog, in vivo, sc, beagle dogs, single subcutaneous administration, 0.05mg/kg, read-out: AUC0-t)?
A: 29900 ± 5660 ng·h/mL

Q: And the Cmax ([1]; dog, in vivo, sc, beagle dogs, single subcutaneous administration, 0.05mg/kg, read-out: Cmax)?
A: 407 ± 45.8 ng/mL

Q: And the Tmax ([1]; dog, in vivo, sc, beagle dogs, single subcutaneous administration, 0.05mg/kg, read-out: Tmax)?
A: 19.3 ± 8.08 h

Q: What about the “GLP-1R EC50 ratio” value (dog GLP-1R) of the same compound?
A: 4.52
